Results: US20070015822A1, “Methods for selectively treating COX-2 mediated disorders by administering gamma-tocopherol” (priority 2005, published 2007)
Read-outs that look alike come from different tables or passages of the source.

How the values were obtained:
Type in all cases: in vivo, dog
[1] = biological target: T1, COX-2 (Canis lupus familiaris, UniProt Q8SPQ9); test: COX-2 IC50 determination in dogs; design: from tissue; settings: for COX-1:COX-2: ratio of COX-1 IC50 to COX-2 IC50 (selectivity)
T1 sequence (Q8SPQ9 18-604): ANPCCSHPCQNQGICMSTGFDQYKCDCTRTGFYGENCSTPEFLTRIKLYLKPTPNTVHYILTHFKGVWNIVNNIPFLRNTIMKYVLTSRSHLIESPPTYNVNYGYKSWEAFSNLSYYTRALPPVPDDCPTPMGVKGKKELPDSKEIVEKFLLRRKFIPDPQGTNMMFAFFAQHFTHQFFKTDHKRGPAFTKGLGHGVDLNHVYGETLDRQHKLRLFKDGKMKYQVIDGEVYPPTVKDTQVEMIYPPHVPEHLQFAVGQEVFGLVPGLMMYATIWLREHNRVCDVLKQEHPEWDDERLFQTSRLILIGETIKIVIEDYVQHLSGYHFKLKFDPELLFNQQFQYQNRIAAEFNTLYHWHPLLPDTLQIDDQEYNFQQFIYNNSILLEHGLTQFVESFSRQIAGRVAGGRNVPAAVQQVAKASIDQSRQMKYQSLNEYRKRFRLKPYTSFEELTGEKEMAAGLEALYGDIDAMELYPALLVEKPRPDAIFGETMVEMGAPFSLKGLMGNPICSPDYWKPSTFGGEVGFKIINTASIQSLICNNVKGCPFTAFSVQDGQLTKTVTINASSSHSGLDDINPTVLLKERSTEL

[2] = biological target: T2, COX-1 (Canis lupus familiaris, UniProt Q8HZR1); test: COX-1 IC50 determination in dogs; settings: six dogs; γ-tocopherol tested as tocopherol composition comprising 66.6% gamma-tocopherol
T2 construct: from tissue
T2 sequence (Q8HZR1 28-603): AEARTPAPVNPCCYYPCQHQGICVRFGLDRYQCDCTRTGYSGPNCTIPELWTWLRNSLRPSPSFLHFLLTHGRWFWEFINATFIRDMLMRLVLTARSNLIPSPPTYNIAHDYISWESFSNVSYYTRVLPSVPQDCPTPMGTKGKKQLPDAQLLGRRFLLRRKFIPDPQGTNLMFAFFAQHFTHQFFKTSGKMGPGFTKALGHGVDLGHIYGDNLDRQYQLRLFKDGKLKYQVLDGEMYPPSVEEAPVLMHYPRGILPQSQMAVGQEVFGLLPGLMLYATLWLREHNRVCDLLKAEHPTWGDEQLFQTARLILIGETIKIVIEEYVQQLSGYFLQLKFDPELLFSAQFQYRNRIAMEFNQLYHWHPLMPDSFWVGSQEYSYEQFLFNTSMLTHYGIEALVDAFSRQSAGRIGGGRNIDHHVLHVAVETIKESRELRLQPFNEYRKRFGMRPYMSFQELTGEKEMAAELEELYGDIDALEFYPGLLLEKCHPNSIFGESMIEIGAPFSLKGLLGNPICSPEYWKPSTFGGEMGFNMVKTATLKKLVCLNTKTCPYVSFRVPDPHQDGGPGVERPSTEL

[3] = system: urate-induced lameness; test: crystal urate-induced lameness model in dogs; settings: 10 or 100 mg/kg body weight, 66.4% w/w or 90.9% w/w gamma-tocopherol
Experimental: A study was conducted to evaluate the effectiveness of the inventive formulations using the crystal urate-induced lameness model dogs. Formulations according to the invention and comprising 66.4% w/w or 90.9% w/w gamma-tocopherol and at 10 and 100 mg/kg body weight were administered to the dogs.

[4] = six dogs, γ-tocopherol tested as tocopherol composition comprising 66.6% gamma-tocopherol, read-out: COX-2 IC50

Which results are given for `CC1(C)OC(=O)C(OCC2CC2)=C1c1ccc(S(C)(=O)=O)cc1` [Firocoxib]?
COX-1:COX-2 [1]: 384; IC50 [1, 4]: 0.31 µM; IC50 [2]: 119 µM

`Cc1c(O)cc2c(c1C)O[C@](C)(CCC[C@H](C)CCC[C@H](C)CCCC(C)C)CC2` [γ-Tocopherol, 3,4-dihydro-2,7,8-trimethyl-2-(4,8,12-trimethyltridecyl)-2H-1-benzyopyran-6-ol] was tested. Which IC50 [1, 4] did it give?
Its IC50 is 27.8 µM.

What about the “degree of force upon the urate-treated joints tolerated” value ([3]; FIGS. 3-4) of the same compound?
Its value is “increased”.

And the “degree of lameness (urate-induced)” value ([3]; after 8 hours, FIGS. 1-2)?
Its value is “Improvement in the degree of lameness”.

What about the “COX-1 IC50” value [2] of the same compound?
The value was “No activity”.

Which IC50 [1] does the source give for `CC(C(=O)O)c1ccc2c(c1)[nH]c1ccc(Cl)cc12` (stereo not shown) [Carprofen] here?
Its IC50 is 10 µM.

What about the “COX-1:COX-2” value [1] of the same compound?
The value was 7.

What about the IC50 [2] of the same compound?
Its IC50 is 68.6 µM.
